Experimental data published in ChEMBL document CHEMBL1148297, “Synthesis and biological evaluation of analogues of 7-chloro-4,5-dihydro-4- oxo-8-(1,2,4-triazol-4-yl)-1,2,4-triazolo[1,5-a]quinoxaline-2-carboxylic acid (TQX-173) as novel selective AMPA receptor antagonists” (J Med Chem, 2004).

Tests used:
[1] = molecular target: Glutamate receptor ionotropic, kainate; assay: Inhibition concentration towards high-affinity ionotropic glutamate receptor kainate of rat cortical membranes by using [3H]KA as radioligand
[2] = molecular target: Glutamate receptor ionotropic, kainate; assay: Inhibition concentration towards low-affinity Ionotropic glutamate receptor kainate of rat cortical membranes by using [3H]-KA as radioligand
[3] = species: Mus musculus; assay: Concentration necessary for 50% inhibition of depolarization induced by 5 uM S-AMPA in mouse cortical wedge preparation; type: functional
[4] = molecular target: Glutamate receptor ionotropic, NMDA 1 (Rattus norvegicus) (UniProt P35439); assay: Percent inhibition of compound at 100 uM towards N-methyl-D-aspartate glutamate receptor 1 (high affinity) of rat cortical synaptic membranes by using [3H]-Gly as radioligand; type: cell membranes; settings: Membrane
[5] = species: Rattus norvegicus; assay: Concentration that inhibits 50% S-AMPA stimulated (50 uM) [3H]norepinephrine release from rat hippocampal synaptosomes; type: functional; settings: Hippocampus
[6] = Ratio of IC50 of KA low-affinity receptor site to KA high-affinity receptor site
[7] = species: Mus musculus; assay: Concentration necessary for 50% inhibition of depolarization induced by 5 uM NMDA in mouse cortical wedge preparation; type: functional
[8] = molecular target: Glutamate receptor ionotropic, AMPA (Rattus norvegicus, UniProt P19490+P19491+P19492+P19493)
Description: Binding affinity towards ionotropic glutamate receptor (high-affinity) of rat cortical synaptic membranes by using [3H]AMPA as radioligand

[9] = molecular target: Glutamate receptor ionotropic, NMDA 1 (Rattus norvegicus, UniProt P35439); assay: Binding affinity towards N-methyl-D-aspartate glutamate receptor 1 (high affinity) of rat cortical synaptic membranes by using [3H]Gly as radioligand
[10] = species: Rattus norvegicus; assay: Concentration giving 50% inhibition of stimulated [3H](+)-MK-801 binding in rat cortical membranes incubated with 10 uM glutamate and 0.1 uM glycine
[11] = molecular target: Glutamate receptor ionotropic, kainate (Rattus norvegicus) (UniProt P22756+Q01812+P42260+P42264+Q63273); assay: Percent inhibition of compound at 100 uM towards high-affinity Ionotropic glutamate receptor kainate of rat cortical membranes by using [3H]KA as radioligand; type: cell membranes; settings: Membrane

SMILES | IC50 [1] [µM] | Ki [8] [µM] | Ki [9] [µM] | other results
O=Cc1ccn(-c2cc3c(cc2[N+](=O)[O-])nc(O)c2nc(C(=O)O)nn23)c1 | 8.2 | 0.18 | – | IC50 [2]: 1.2 µM; IC50 [3]: 3.1 µM; inhibition [4]: 43%; IC50 [5]: 12 µM; Ratio [6]: 0.15; IC50 ([7]; Mus musculus, read-out: IC50): 52 µM
CCOC(=O)c1nc2c(O)nc3cc(C(F)(F)F)c(-n4ccc(C(=O)O)c4)cc3n2n1 | 12.9 | 0.35 | – | inhibition [4]: 33%
CCOC(=O)c1nc2c(=O)[nH]c3cc(C(F)(F)F)c(N)cc3n2n1 | – | 5.5 | 5.5 | –
Nc1cc2c(cc1[N+](=O)[O-])[nH]c(=O)c1nc(C(=O)O)nn12 | 20 | 0.7 | 2.7 | –
CC(=O)Nc1cc2c(cc1[N+](=O)[O-])nc(O)c1nc(C(=O)O)nn12 | 22.2 | 1.14 | 63 | –
O=C(O)c1nc2c(O)nc3cc(C(F)(F)F)c(-n4cnnc4)cc3n2n1 | – | – | – | IC50 [3]: 0.8 µM; IC50 [5]: 5.8 µM; Ratio [6]: 0.19; IC50 ([7]; Mus musculus, read-out: IC50): 60 µM
O=C(O)c1ccn(-c2cc3c(cc2[N+](=O)[O-])nc(O)c2nc(C(=O)O)nn23)c1 | 17 | 0.019 | – | inhibition [4]: 7%
CCOC(=O)c1nc2c(O)nc3cc([N+](=O)[O-])c(-n4ccc(C=O)c4)cc3n2n1 | 44.4 | 0.65 | – | inhibition [4]: 28%
CCOC(=O)c1nc2c(=O)[nH]c3cc([N+](=O)[O-])c(NC(C)=O)cc3n2n1 | 41 | 6.5 | 85 | –
Nc1cc2c(cc1C(F)(F)F)nc(O)c1nc(C(=O)O)nn12 | 24 | 1.2 | 1.5 | –
O=C(O)c1cc(O)c2c(Cl)cc(Cl)cc2n1 | – | – | 0.09 | –
CCOC(=O)c1nc2c(=O)[nH]c3cc(C(F)(F)F)c(N4C(=O)C=C(C=O)C4=O)cc3n2n1 | 42 | 12.8 | 10.9 | –
O=C(O)c1nc2c(O)nc3cc(C(F)(F)F)c(-n4cccc4)cc3n2n1 | 18.1 | 0.28 | 8.3 | IC50 [3]: 1.5 µM; IC50 [5]: 11 µM; IC50 ([7]; Mus musculus, read-out: IC50): 80 µM; IC50 [10]: 12.7 µM
O=C(O)c1nc2c(=O)[nH]c3cc(Cl)c(-n4cnnc4)cc3n2n1 [TQX-173] | 11.3 | – | – | IC50 [5]: 28 µM; IC50 [10]: 68 µM
CCOC(=O)c1nc2c(O)nc3cc([N+](=O)[O-])c(-n4ccc(C(=O)O)c4)cc3n2n1 | – | 0.068 | – | inhibition [4]: 16%
NS(=O)(=O)c1cccc2c1c([N+](=O)[O-])cc1nc(O)c(O)nc12 [NBQX] | – | – | – | IC50 [5]: 4 µM; IC50 [7]: Not Active
O=C(O)c1nc2c(O)nc3cc([N+](=O)[O-])c(-n4cccc4)cc3n2n1 | – | – | – | IC50 [3]: 1 µM; IC50 [5]: 19 µM; Ratio [6]: 0.33; IC50 ([7]; Mus musculus, read-out: IC50): 50 µM
O=Cc1ccn(-c2cc3c(cc2C(F)(F)F)nc(O)c2nc(C(=O)O)nn23)c1 | – | – | – | IC50 [3]: 1 µM; IC50 [5]: 8.1 µM; Ratio [6]: 0.18; IC50 ([7]; Mus musculus, read-out: IC50): 50 µM; IC50 [10]: 11 µM

SMILES | IC50 [1] [µM] | Ki [8] [µM] | Ki [9] [µM] | other results
O=Cc1ccn(-c2cc3c(cc2C(F)(F)F)[nH]c(=O)c2nc(C(=O)O)nn23)c1 | 5.6 | 0.12 | 2.6 | IC50 [2]: 1 µM
O=C(O)c1ccn(-c2cc3c(cc2C(F)(F)F)[nH]c(=O)c2nc(C(=O)O)nn23)c1 | 5.4 | 0.037 | 35 | IC50 [2]: 2.6 µM
CCOC(=O)c1nc2c(O)nc3cc(C(F)(F)F)c(-n4cnnc4)cc3n2n1 | 92 | 0.2 | – | IC50 [3]: 12 µM; inhibition [4]: 42%; IC50 ([7]; Mus musculus, read-out: IC50): > 150 µM
CCOC(=O)c1nc2c(=O)[nH]c3cc([N+](=O)[O-])c(-n4cccc4)cc3n2n1 | 41 | 1.4 | 84 | –
CCOC(=O)c1nc2c(O)nc3cc(C(F)(F)F)c(-n4cccc4)cc3n2n1 | – | 2.2 | 75 | inhibition [11]: 5%
O=C(O)c1nc2c(=O)[nH]c3cc(C(F)(F)F)c([N+](=O)[O-])cc3n2n1 | 43 | 2.35 | 4.4 | –
O=C(O)c1ccn(-c2cc3c(cc2C(F)(F)F)nc(O)c2nc(C(=O)O)nn23)c1 | – | – | – | IC50 [3]: 1.3 µM; IC50 [5]: 7.5 µM; Ratio [6]: 0.48; IC50 ([7]; Mus musculus, read-out: IC50): 60 µM
CCOC(=O)c1nc2c(O)nc3cc(C(F)(F)F)c([N+](=O)[O-])cc3n2n1 | – | – | – | inhibition [11]: 24%
CCOC(=O)c1nc2c(O)nc3cc(Cl)c(-n4cnnc4)cc3n2n1 | – | – | – | inhibition [4]: 15%
O=C(O)c1nc2c(O)nc3cc(C(F)(F)F)c(-n4ccnc4)cc3n2n1 | 13 | 0.12 | 34 | –
CCOC(=O)c1nc2c(=O)[nH]c3cc(C(F)(F)F)c([N+](=O)[O-])cc3n2n1 | – | 9 | 62 | –
CCOC(=O)c1nc2c(O)nc3cc(C(F)(F)F)c(-n4ccc(C=O)c4)cc3n2n1 | 31.2 | 0.37 | 71 | IC50 [3]: 7.8 µM; IC50 [7]: Not Active
CCOC(=O)c1nc2c(O)nc3cc(C(F)(F)F)c(-n4ccnc4)cc3n2n1 | 71 | 0.35 | 54 | –
O=C(O)c1nc2c(=O)[nH]c3cc(C(F)(F)F)c(-n4cnnc4)cc3n2n1 | 9.6 | 0.095 | 3.6 | IC50 [2]: 1.8 µM
CCOC(=O)c1nc2c(O)nc3cc(C(F)(F)F)c(N)cc3n2n1 | – | – | – | inhibition [11]: 45%
O=C(O)c1nc2c(=O)[nH]c3cc([N+](=O)[O-])c(-n4cccc4)cc3n2n1 | 5.1 | 0.088 | 65 | IC50 [2]: 1.7 µM
CCOC(=O)c1nc2c(O)nc3cc([N+](=O)[O-])c(N)cc3n2n1 | 69 | 1.2 | 3.7 | –
